Experiments:
[1] = system: A549 cells; assay: Cell viability (MTT) assay, A549 cells; format: cell-based, human; settings: 48 hours, two-way ANOVA with Dunnett's
[2] = system: HEK293 cells; assay: Cell viability (MTT) assay, HEK293 cells; format: cell-based, human; settings: 48 hours, two-way ANOVA with Dunnett's
[3] = Dose 1 (0.025 mg/ml nanocomposite; 0.001125 mg/ml free Cp, Rib)
[4] = Dose 2 (0.05 mg/ml nanocomposite; 0.00225 mg/ml free Cp, Rib)
[5] = Dose 3 (0.1 mg/ml nanocomposite; 0.0045 mg/ml free Cp, Rib)
[6] = Dose 4 (0.5 mg/ml nanocomposite; 0.0225 mg/ml free Cp, Rib)

Compound | Significant (cell viability vs no-treatment control) [1, 3] | Significant (cell viability vs no-treatment control) [1, 4] | Significant (cell viability vs no-treatment control) [1, 5] | Significant (cell viability vs no-treatment control) [1, 6] | Significant (cell viability vs no-treatment control) [2, 3] | Significant (cell viability vs no-treatment control) [2, 4] | Significant (cell viability vs no-treatment control) [2, 5] | Significant (cell viability vs no-treatment control) [2, 6]
N.N.[Cl][Pt][Cl] [Cp, cisplatin] | No | No | No | Yes | No | No | No | Yes
NC(=O)c1ncn([C@@H]2O[C@H](CO)[C@@H](O)[C@H]2O)n1 [Rib, 1-β-D-Ribofuranosyl-1,2,4-triazole-3-carboxamide] | No | No | No | Yes | No | No | Yes | Yes

From patent US12629392B2, “Method of treating covid-19 infection using superparamagnetic iron oxide nanoparticle” (Imam Abdulrahman Bin Faisal University, priority 2023, dated 2026)
